Results taken from publication PMC3191323 (Journal of medicinal chemistry, 2011).

Experiments:
[1] = tested on: P. falciparum (3D7); experiment: Viable cell count; assay type: cell-based, Plasmodium falciparum; settings: 2xIC50, 72 h
[2] = tested on: HepG2 human hepatocellular liver carcinoma cells; experiment: Cytotoxicity in mammalian cells, lactate dehydrogenase assay; assay type: cell-based; settings: HepG2 vs P. falciparum
[3] = tested on: P. falciparum; experiment: Flow cytometric analysis of parasite DNA replication and nuclear division; assay type: cell-based, Plasmodium falciparum; settings: 2xIC50, flow cytometry
[4] = tested on: P. falciparum strain 3D7; experiment: Malaria SYBR Green I-based fluorescence assay; assay type: cell-based, Plasmodium falciparum
[5] = tested on: P. falciparum strain W2; experiment: Malaria SYBR Green I-based fluorescence assay; assay type: cell-based; settings: Plasmodium falciparum, W2, 96 h, read-out: Antimalarial activity against P. falciparum IC50, W2

Cl.Cl.O=C(NCCCNCCCCCCCNCCCNC(=O)NCC(c1ccccc1)c1ccccc1)NCC(c1ccccc1)c1ccccc1 [Compound 39, 1,15-Bis-{3-[1-(2′,2′-diphenylethyl)ureado]}-4,12-diazapentadecane Hydrochloride]
Cytotoxic response: decrease in viable cell numbers (% parasitemia) [1]: significant cytotoxic response
Selectivity towards the parasite compared to HepG2 [2]: > 500 fold
Effect on DNA replication and nuclear division [3]: greatest inhibitory affect on DNA replication and nuclear division

Cl.Cl.S=C(NCCCNCCCCNCCCNC(=S)NCC(c1ccccc1)c1ccccc1)NCC(c1ccccc1)c1ccccc1 [Compound 15]
Cytotoxic response: decrease in viable cell numbers (% parasitemia) [1]: significant cytotoxic response

Cl.Cl.O=C(NCCCNCCCCCCNCCCNC(=O)Nc1ccccc1)Nc1ccccc1 [Compound 30, 1,14-Bis-{3-[1-(phenyl)ureado]}-4,11-diazatetradecane Hydrochloride]
Cytotoxic response: decrease in viable cell numbers (% parasitemia) [1]: significant cytotoxic response

CCN(CC)CCCC(C)Nc1ccnc2cc(Cl)ccc12 (centres unmarked) [CQ, chloroquine, reference compound]
IC50 ([4]; Plasmodium falciparum, 3D7, 96 h, read-out: Antimalarial activity against P. falciparum IC50, 3D7): 9 ± 0.04 nM
IC50 [5]: 70 ± 1 nM

Cl.Cl.S=C(NCCCNCCCCCCNCCCNC(=S)NC(c1ccccc1)c1ccccc1)NC(c1ccccc1)c1ccccc1 [Compound 25, 1,14-Bis-{3-[1-(1′,1′-diphenylmethyl)thioureado]}-4,11-diazatetradecane Hydrochloride]
Cytotoxic response: decrease in viable cell numbers (% parasitemia) [1]: significant cytotoxic response

Cl.Cl.S=C(NCCCNCCCCNCCCNC(=S)NCc1ccccc1)NCc1ccccc1 [Compound 20]
Cytotoxic response: decrease in viable cell numbers (% parasitemia) [1]: not able to decrease viable cell numbers
Effect on DNA replication and nuclear division [3]: not able to prevent DNA replication

Cl.Cl.O=C(NCCCNCCCCCCCNCCCNC(=O)NC(c1ccccc1)c1ccccc1)NC(c1ccccc1)c1ccccc1 [Compound 38, 1,15-Bis-{3-[1-(1′,1′-diphenylmethyl)ureado]}-4,12-diazapentadecane Hydrochloride]
Cytotoxic response: decrease in viable cell numbers (% parasitemia) [1]: significant cytotoxic response
Selectivity towards the parasite compared to HepG2 [2]: > 500 fold
Effect on DNA replication and nuclear division [3]: greatest inhibitory affect on DNA replication and nuclear division

CCNC(=O)NCCCNCCCCCCNCCCNC(=O)NCC.Cl.Cl [Compound 34, 1,14-Bis-{3-[1-(ethyl)ureado]}-4,11-diazatetradecane Hydrochloride]
Antimalarial activity against P. falciparum IC50, 3D7 (values in μM) ([4]; drug sensitive strain 3D7, footnote: IC50 values in μM): not active in the μM range

Cl.Cl.S=C(NCCCNCCCCCCNCCCNC(=S)NCc1ccccc1)NCc1ccccc1 [Compound 29, 1,14-Bis-{3-[1-(benzyl)thioureado]}-4,11-diazatetradecane Hydrochloride]
Cytotoxic response: decrease in viable cell numbers (% parasitemia) [1]: significant cytotoxic response
Selectivity towards the parasite compared to HepG2 [2]: > 500 fold

Cl.Cl.S=C(NCCCNCCCCCCCNCCCNC(=S)NCCC(c1ccccc1)c1ccccc1)NCCC(c1ccccc1)c1ccccc1 [Compound 13]
Cytotoxic response: decrease in viable cell numbers (% parasitemia) [1]: significant cytotoxic response

Cl.Cl.S=C(NCCCNCCCCCCCNCCCNC(=S)NCC(c1ccccc1)c1ccccc1)NCC(c1ccccc1)c1ccccc1 [Compound 16]
Cytotoxic response: decrease in viable cell numbers (% parasitemia) [1]: significant cytotoxic response
Effect on DNA replication and nuclear division [3]: greatest inhibitory affect on DNA replication and nuclear division

Cl.Cl.O=C(NCCCNCCCCCCCNCCCNC(=O)NCCC(c1ccccc1)c1ccccc1)NCCC(c1ccccc1)c1ccccc1 [Compound 9]
Cytotoxic response: decrease in viable cell numbers (% parasitemia) [1]: significant cytotoxic response
